Results from US9481654B2, “Compositions and methods for inhibition of the JAK pathway” (Rigel Pharmaceuticals, Inc., priority 2006, dated 2016).

Tests used:
[1] = tested on: primary human T-cells (IL-2 induced proliferation, JAK-1/JAK-3, Stat-5); test: Primary Human T-Cell Proliferation Assay Stimulated with IL-2 (CellTiter-Glo); format: cell-based; conditions: Table III Example 4
How it was run: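 Read-out is intracellular ATP luminescence (CellTiter-Glo) after 72 h at 37 °C of IL-2-driven growth. Cells, pre-stimulated via TCR and CD28 then washed free of IL-2, were resuspended in Yssel's medium, given 80 U/mL IL-2 in the cell suspension plus duplicate compound; unstimulated wells lacked IL-2.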

[2] = tested on: IFNγ induced ICAM-1 (CD54) up-regulation in U937 human monocytic cells (JAK/Stat pathway); test: U937 IFNγ ICAM1 FACS Assay; format: cell-based; conditions: Table III Example 6, 10 ng/mL IFNγ, 18-24 hours
How it was run: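 Flow cytometry gave ICAM-1 (CD54) up-regulation as ICAM-APC geometric mean within the live-cell gate, alongside % viable cells. Human monocytic U937 cells received 3-fold serial compound dilutions for 30 min at 37 °C, followed by IFNγ stimulation lasting 18–24 h. Dose curves yielded EC50s.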

Structure (SMILES): NS(=O)(=O)c1cccc(Nc2ncc(Cl)c(Nc3ccc(CNS(=O)(=O)C4CC4)cc3)n2)c1 [Compound I-114, N2-(3-aminosulfonyl)phenyl-5-chloro-N4-(4-cyclopropylsulfonylaminomethyl)phenyl-2,4-pyrimidinediamine]
- IC50 [1]: 9.2 nM
- IC50 [2]: 51.7 nM

Structure (SMILES): Cc1ccc(Nc2ncc(C)c(Nc3ccc(CCNS(=O)(=O)C4CC4)cc3)n2)cc1S(N)(=O)=O [Compound I-55, N2-(3-aminosulfonyl-4-methyl)phenyl-N4-[4-(2-cyclopropylsulfonylamino)ethyl]phenyl-5-methyl-2,4-pyrimidinediamine]
- IC50 [1]: 84.5 nM
- IC50 [2]: 360 nM

Structure (SMILES): Cc1cnc(Nc2cccc(S(N)(=O)=O)c2)nc1Nc1ccc(CCNS(=O)(=O)C2CC2)cc1 [Compound I-54, N2-(3-aminosulfonyl)phenyl-N4-[4-(2-cyclopropylsulfonylamino)ethyl]phenyl-5-methyl-2,4-pyrimidinediamine]
- IC50 [1]: 47 nM
- IC50 [2]: 389 nM

Structure (SMILES): Cc1ccc(Nc2ncc(F)c(Nc3ccc(CNS(=O)(=O)CC(F)(F)F)cc3)n2)cc1S(N)(=O)=O [Compound I-50, N2-(3-aminosulfonyl-4-methyl)phenyl-5-fluoro-N4-(4-trifluoroethylsulfonylaminomethyl)phenyl-2,4-pyrimidinediamine]
- IC50 [1]: 62.7 nM
- IC50 [2]: 548 nM

Structure (SMILES): Cc1ccc(Nc2ncc(C)c(Nc3ccc(CNS(=O)(=O)C4CC4)c(Cl)c3)n2)cc1S(N)(=O)=O [Compound I-125, N2-(3-aminosulfonyl-4-methyl)phenyl-N4-(3-chloro-4-cyclopropylsulfonylaminomethyl)phenyl-5-methyl-2,4-pyrimidinediamine]
- IC50 [1]: 138 nM
- IC50 [2]: 389 nM

Structure (SMILES): CCS(=O)(=O)N[C@H](C)c1ccc(Nc2nc(Nc3cccc(S(N)(=O)=O)c3)ncc2F)cc1 [Compound I-30, N2-(3-aminosulfonyl)phenyl-N4-[4-(1R-ethylsulfonylamino)ethyl]phenyl-5-fluoro-2,4-pyrimidinediamine]
- IC50 [1]: 153 nM
- IC50 [2]: 1160 nM

Structure (SMILES): Cc1ccc(Nc2ncc(F)c(Nc3ccc(CNS(=O)(=O)C4CCCC4)cc3)n2)cc1S(N)(=O)=O [Compound I-70, N2-(3-aminosulfonyl-4-methyl)phenyl-N4-(4-cyclopentylsulfonylaminomethyl)phenyl-5-fluoro-2,4-pyrimidinediamine]
- IC50 [1]: 150 nM
- IC50 [2]: 159 nM

Structure (SMILES): CNS(=O)(=O)c1cccc(Nc2ncc(C)c(Nc3cccc(CNS(=O)(=O)C4CC4)c3)n2)c1 [Compound I-162, N4-(3-cyclopropylsulfonylaminomethyl)phenyl-5-methyl-N2-(3-methylaminosulfonyl)phenyl-2,4-pyrimidinediamine]
- IC50 [1]: 46.3 nM
- IC50 [2]: 155 nM

Structure (SMILES): CCS(=O)(=O)NCCc1ccc(Nc2nc(Nc3ccc(C)c(S(N)(=O)=O)c3)ncc2F)cc1 [Compound I-16, N2-(3-aminosulfonyl-4-methyl)phenyl-N4-[4-(2-ethylsulfonylamino)ethyl]phenyl-5-fluoro-2,4-pyrimidinediamine]
- IC50 [1]: 536 nM
- IC50 [2]: 2280 nM

Structure (SMILES): Cc1ccc(Nc2ncc(C)c(Nc3ccc(CNS(=O)(=O)C4CC4)cc3)n2)cc1S(=O)(=O)NCc1ccccc1 [Compound I-195, N2-(3-benzylaminosulfonyl-4-methyl)phenyl-N4-(4-cyclopropylsulfonylaminomethyl)phenyl-5-methyl-2,4-pyrimidinediamine]
- IC50 [1]: 104 nM
- IC50 [2]: 230 nM

Structure (SMILES): NS(=O)(=O)c1ccc(Nc2ncc(F)c(Nc3ccc(CNS(=O)(=O)C4CCCCC4)cc3)n2)cc1 [Compound I-71, N2-(4-aminosulfonyl)phenyl-N4-(4-cyclohexylsulfonylaminomethyl)phenyl-5-fluoro-2,4-pyrimidinediamine]
- IC50 [1]: 132 nM
- IC50 [2]: 401 nM

Structure (SMILES): Cc1cnc(Nc2cccc(S(N)(=O)=O)c2)nc1Nc1ccc(CNS(=O)(=O)C(C)C)cc1 [Compound I-118, N2-(3-aminosulfonyl)phenyl-N4-(4-isopropylsulfonylaminomethyl)phenyl-5-methyl-2,4-pyrimidinediamine]
- IC50 [1]: 15.8 nM
- IC50 [2]: 218 nM

Structure (SMILES): CCS(=O)(=O)NCCc1ccc(Nc2nc(Nc3ccc(C)c(S(N)(=O)=O)c3)ncc2C)cc1 [Compound I-40, N2-(3-aminosulfonyl-4-methyl)phenyl-N4-[4-(2-ethylsulfonylamino)ethyl]phenyl-5-methyl-2,4-pyrimidinediamine]
- IC50 [1]: 92.4 nM
- IC50 [2]: 341 nM

Structure (SMILES): Cc1ccc(Nc2ncc(F)c(Nc3ccc(CNS(=O)(=O)c4cccs4)cc3)n2)cc1S(N)(=O)=O [Compound I-37, N2-(3-aminosulfonyl-4-methyl)phenyl-5-fluoro-N4-[4-(thiophen-2-yl)sulfonylaminomethyl]phenyl-2,4-pyrimidinediamine]
- IC50 [1]: 152 nM
- IC50 [2]: 375 nM

Structure (SMILES): CNS(=O)(=O)c1cccc(Nc2ncc(C)c(Nc3ccc(CNS(=O)(=O)C4CC4)cc3)n2)c1 [Compound I-161, N4-(4-cyclopropylsulfonylaminomethyl)phenyl-5-methyl-N2-(3-methylaminosulfonyl)phenyl-2,4-pyrimidinediamine]
- IC50 [1]: 11.2 nM
- IC50 [2]: 51 nM

Structure (SMILES): C#CCNS(=O)(=O)Cc1ccc(Nc2nc(Nc3cccc(S(N)(=O)=O)c3)ncc2F)cc1 [Compound I-4, N2-(3-Aminosulfonylphenyl)-5-fluoro-N4-[4-(prop-2-ynylaminosulfonylmethyl)phenyl]-2,4-pyrimidinediamine]
- IC50 ([1]; Homo sapiens, T-cell): 109 nM
- IC50 ([2]; Homo sapiens, U-937): 908 nM

Structure (SMILES): Cc1ccc(Nc2ncc(F)c(Nc3cccc(CNS(=O)(=O)C4CC4)c3)n2)cc1S(N)(=O)=O [Compound I-34, N2-(3-aminosulfonyl-4-methyl)phenyl-N4-(3-cyclopropylsulfonylaminomethyl)phenyl-5-fluoro-2,4-pyrimidinediamine]
- IC50 [1]: 484 nM
- IC50 [2]: 1190 nM

Structure (SMILES): Cc1ccc(Nc2ncc(F)c(Nc3ccc(CNS(=O)(=O)C4CCCCC4)cc3)n2)cc1S(N)(=O)=O [Compound I-73, N2-(3-aminosulfonyl-4-methyl)phenyl-N4-(4-cyclohexylsulfonylaminomethyl)phenyl-5-fluoro-2,4-pyrimidinediamine]
- IC50 [1]: 71 nM
- IC50 [2]: 312 nM

Structure (SMILES): CCS(=O)(=O)NCCc1ccc(Nc2nc(Nc3cccc(S(N)(=O)=O)c3)ncc2C)cc1 [Compound I-39, N2-(3-aminosulfonyl)phenyl-N4-[4-(2-ethylsulfonylamino)ethyl]phenyl-5-methyl-2,4-pyrimidinediamine]
- IC50 [1]: 58 nM
- IC50 [2]: 604 nM

Structure (SMILES): NS(=O)(=O)c1cccc(Nc2ncc(F)c(Nc3ccc(CNS(=O)(=O)C4CCCCC4)cc3)n2)c1 [Compound I-72, N2-(3-aminosulfonyl)phenyl-N4-(4-cyclohexylsulfonylaminomethyl)phenyl-5-fluoro-2,4-pyrimidinediamine]
- IC50 [1]: 25.1 nM
- IC50 [2]: 204 nM

Structure (SMILES): C#CCNS(=O)(=O)c1ccc(Nc2ncc(C)c(Nc3ccc(CNS(=O)(=O)C4CC4)cc3)n2)cc1 [Compound I-164, N4-(4-cyclopropylsulfonylaminomethyl)phenyl-5-methyl-N2-(4-propargylaminosulfonyl)phenyl-2,4-pyrimidinediamine]
- IC50 [1]: 32.8 nM
- IC50 [2]: 160 nM

Structure (SMILES): NS(=O)(=O)c1ccc(Nc2ncc(F)c(Nc3ccc(CNS(=O)(=O)CC(F)(F)F)cc3)n2)cc1 [Compound I-48, N2-(4-aminosulfonyl)phenyl-5-fluoro-N4-(4-trifluoroethylsulfonylaminomethyl)phenyl-2,4-pyrimidinediamine]
- IC50 [1]: 758 nM
- IC50 [2]: 3760 nM

Structure (SMILES): CCCNS(=O)(=O)c1cccc(Nc2ncc(C)c(Nc3ccc(CNS(=O)(=O)C4CC4)cc3)n2)c1 [Compound I-178, N4-(4-cyclopropylsulfonylaminomethyl)phenyl-5-methyl-N2-(3-propylaminosulfonyl)phenyl-2,4-pyrimidinediamine]
- IC50 [1]: 122 nM
- IC50 [2]: 57.7 nM

Structure (SMILES): COCCCNS(=O)(=O)c1cc(Nc2ncc(C)c(Nc3ccc(CNS(=O)(=O)C4CC4)cc3)n2)ccc1C [Compound I-191, N4-(4-cyclopropylsulfonylaminomethyl)phenyl-N2-[3-(3-methoxypropyl)aminosulfonyl-4-methyl]phenyl-5-methyl-2,4-pyrimidinediamine]
- IC50 [1]: 79.9 nM
- IC50 [2]: 247 nM

Structure (SMILES): Cc1cnc(Nc2ccc(S(N)(=O)=O)cc2)nc1Nc1ccc2c(c1)CCN(S(=O)(=O)C1CC1)C2 [II-1, N2-(4-aminosulfonyl)phenyl-N4-[(N-cyclopropylsulfonyl)-1,2,3,4-tetrahydroisoquinolin-6-yl]-5-methyl-2,4-pyrimidinediamine]
- IC50 [1]: 108 nM
- IC50 [2]: 229 nM

Structure (SMILES): Cc1ccc(Nc2ncc(C)c(Nc3cccc(CNS(=O)(=O)C4CC4)c3)n2)cc1S(N)(=O)=O [Compound I-52, N2-(3-aminosulfonyl-4-methyl)phenyl-N4-(3-cyclopropylsulfonylaminomethyl)phenyl-5-methyl-2,4-pyrimidinediamine]
- IC50 [1]: 66.2 nM
- IC50 [2]: 203 nM

Structure (SMILES): Cc1cnc(Nc2ccc(S(N)(=O)=O)cc2)nc1Nc1ccc(CNS(=O)(=O)C(C)C)cc1 [Compound I-123, N2-(4-aminosulfonyl)phenyl-N4-(4-isopropylsulfonylaminomethyl)phenyl-5-methyl-2,4-pyrimidinediamine]
- IC50 [1]: 42.9 nM
- IC50 [2]: 164 nM

Structure (SMILES): Cc1cnc(Nc2ccc(S(N)(=O)=O)cc2)nc1Nc1cccc(CN(C)S(=O)(=O)C2CC2)c1 [Compound I-124, N2-(4-aminosulfonyl)phenyl-N4-[3-(N-cyclopropylsulfonyl-N-methyl)aminomethyl]phenyl-5-methyl-2,4-pyrimidinediamine]
- IC50 [1]: 132 nM
- IC50 [2]: 373 nM
